Test results: patent publication US10047096B2, “Substituted pyridobenzodiazepinone-derivatives and use thereof” (Bayer Pharma Aktiengesellschaft, priority 2014, dated 2018)

target: human PDGFRβ (Homo sapiens (Human), UniProt P09619); test: PDGFRβ kinase assay (PDGFRβ-HTRF); assay type: biochemical; conditions: 10 μM ATP; some mean values from multiple determinations
Protocol: The PDGFRβ-inhibitory activity of the inventive compounds was determined in the PDGFRβ-HTRF assay described hereinafter.
The kinase used was a recombinant fusion protein composed of N-terminal GST and a C-terminal fragment of human PDGFRβ (amino acids R561-L1106), expressed in baculovirus-infected insect cells (Sf9) and purified by affinity chromatography (from ProQinase GmbH, Freiburg, Germany). The substrate used for the kinase reaction was biotinylated poly-Glu,Tyr (4:1) copolymer (from Cisbio Bioassays, Codolet, France).
For the assay, 50 nl of a 100-fold concentrated solution of the test substance in DMSO was pipetted into a black “low-volume 384 well” microtitre plate (from Greiner Bio-One, Frickenhausen, Germany), then 2 μl of a solution of PDGFRβ in assay buffer [50 mM HEPES/NaOH pH 7.5, 10 mM MgCl2, 2.5 mM dithiothreitol, 0.01% (v/v) Triton-X100 (from Sigma)] was added and the mixture was incubated for 15 min, in order to enable preliminary binding of the substance to the enzyme before the kinase reaction. […] The resulting mixture was incubated at 22° C. for 1 h to allow formation of a complex of the biotinylated phosphorylated substrate and the detection reagents.
Subsequently, the amount of the phosphorylated substrate was evaluated by measuring the resonance energy transfer from the PT66-Eu chelate to the streptavidin-XL665. […] The IC50 values were calculated by a 4-parameter fit.

human PDGFRβ, sequence (P09619 561-1106): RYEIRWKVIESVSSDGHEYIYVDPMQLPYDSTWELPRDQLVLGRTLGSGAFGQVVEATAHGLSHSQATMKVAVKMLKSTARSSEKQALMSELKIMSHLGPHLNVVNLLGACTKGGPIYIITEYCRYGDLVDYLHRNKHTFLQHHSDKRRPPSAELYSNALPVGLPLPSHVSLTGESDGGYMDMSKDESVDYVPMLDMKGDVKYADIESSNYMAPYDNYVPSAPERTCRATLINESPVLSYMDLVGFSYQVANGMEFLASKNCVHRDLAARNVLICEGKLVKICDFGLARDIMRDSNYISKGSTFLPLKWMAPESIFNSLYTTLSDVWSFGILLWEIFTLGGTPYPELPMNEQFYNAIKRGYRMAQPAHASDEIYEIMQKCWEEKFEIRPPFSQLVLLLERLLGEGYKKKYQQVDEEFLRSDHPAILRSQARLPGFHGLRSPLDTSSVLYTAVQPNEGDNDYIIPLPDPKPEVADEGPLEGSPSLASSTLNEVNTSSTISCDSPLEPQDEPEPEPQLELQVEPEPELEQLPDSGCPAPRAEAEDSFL

IC50	Structure (SMILES)
6.51 nM	CCCC1CCN(Cc2ccc3c(c2)NC(=O)c2c(Nc4cc(O)c(C)cc4F)ccnc2N3)CC1 [Example 54, 4-[(2-Fluoro-5-hydroxy-4-methylphenyl)amino]-8-[(4-propylpiperidin-1-yl)methyl]-6,11-dihydro-5H-pyrido[2,3-b][1,5]benzodiazepin-5-one]
1.49 nM	Cc1cc(F)c(Nc2ccnc3c2C(=O)Nc2cc(CN4CCC(C)(C)CC4)ccc2N3)cc1O [Example 56, 8-[(4,4-Dimethylpiperidin-1-yl)methyl]-4-[(2-fluoro-5-hydroxy-4-methylphenyl)amino]-6,11-dihydro-5H-pyrido[2,3-b][1,5]benzodiazepin-5-one]
1.82 nM	Cc1cc(F)c(Nc2ccnc3c2C(=O)Nc2cc(CN4CCC(C)C(O)C4)ccc2N3)cc1O (centres unmarked) [Example 59, 4-[(2-Fluoro-5-hydroxy-4-methylphenyl)amino]-8-[(3-hydroxy-4-methylpiperidin-1-yl)methyl]-6,11-dihydro-5H-pyrido[2,3-b][1,5]benzodiazepin-5-one]
0.475 nM	Cc1cc(F)c(Nc2ccnc3c2C(=O)Nc2cc(CNCCc4ccncc4)ccc2N3)cc1O [Example 74, 4-[(2-Fluoro-5-hydroxy-4-methylphenyl)amino]-8-({[2-(pyridin-4-yl)ethyl]amino}methyl)-6,11-dihydro-5H-pyrido[2,3-b][1,5]benzodiazepin-5-one]
213 nM	Cc1cc(F)c(Nc2ccnc3c2C(=O)Nc2cc(C(=O)O)ccc2N3)cc1O [Example 79, 4-[(2-Fluoro-5-hydroxy-4-methylphenyl)amino]-5-oxo-6,11-dihydro-5H-pyrido[2,3-b][1,5]benzodiazepine-8-carboxylic acid]
7.44 nM	Cc1cc(F)c(Nc2ccnc3c2C(=O)Nc2cc(C(N)=O)ccc2N3)cc1O [Example 80, 4-[(2-Fluoro-5-hydroxy-4-methylphenyl)amino]-5-oxo-6,11-dihydro-5H-pyrido[2,3-b][1,5]benzodiazepine-8-carboxamide]
1.31 nM	Cc1cc(F)c(Nc2ccnc3c2C(=O)Nc2cc(C(=O)NC4CCCC(O)C4)ccc2N3)cc1O (centres unmarked) [Example 81, 4-[(2-Fluoro-5-hydroxy-4-methylphenyl)amino]-N-(3-hydroxycyclohexyl)-5-oxo-6,11-dihydro-5H-pyrido[2,3-b][1,5]benzodiazepine-8-carboxamide]
14.6 nM	CCN(CC)C(=O)c1ccc2c(c1)NC(=O)c1c(Nc3cc(O)c(C)cc3F)ccnc1N2 [Example 84, N,N-Diethyl-4-[(2-fluoro-5-hydroxy-4-methylphenyl)amino]-5-oxo-6,11-dihydro-5H-pyrido[2,3-b][1,5]benzodiazepine-8-carboxamide]
13.9 nM	Cc1cc(F)c(Nc2ccnc3c2C(=O)Nc2cc(C(=O)N4CCOCC4)ccc2N3)cc1O [Example 85, 4-[(2-Fluoro-5-hydroxy-4-methylphenyl)amino]-8-(morpholin-4-ylcarbonyl)-6,11-dihydro-5H-pyrido[2,3-b][1,5]benzodiazepin-5-one]
1.41 nM	Cc1cc(F)c(Nc2ccnc3c2C(=O)Nc2cc(CN)ccc2N3)cc1O [Example 87, 8-(Aminomethyl)-4-[(2-fluoro-5-hydroxy-4-methylphenyl)amino]-6,11-dihydro-5H-pyrido[2,3-b][1,5]benzodiazepin-5-one]
5.27 nM	CCN1CCCC1CNCc1ccc2c(c1)NC(=O)c1c(Nc3cc(O)ccc3C)ccnc1N2 (centres unmarked) [Example 92, 8-({[(1-Ethylpyrrolidin-2-yl)methyl]amino}methyl)-4-[(5-hydroxy-2-methylphenyl)amino]-6,11-dihydro-5H-pyrido[2,3-b][1,5]benzodiazepin-5-one]
4.98 nM	CCC(CC)CNCc1ccc2c(c1)NC(=O)c1c(Nc3cc(O)ccc3C)ccnc1N2 [Example 93]
3.52 nM	Cc1ccc(O)cc1Nc1ccnc2c1C(=O)Nc1cc(CNCc3cccc(F)c3F)ccc1N2 [Example 94]
1.95 nM	Cc1ccc(O)cc1Nc1ccnc2c1C(=O)Nc1cc(CNCc3ccc(Cl)nc3)ccc1N2 [Example 95]
2.1 nM	COc1cccc(CNCc2ccc3c(c2)NC(=O)c2c(Nc4cc(O)ccc4C)ccnc2N3)c1 [Example 96]
2.45 nM	Cc1ccc(O)cc1Nc1ccnc2c1C(=O)Nc1cc(CNCCn3ccnn3)ccc1N2 [Example 97]
5.17 nM	Cc1ccc(O)cc1Nc1ccnc2c1C(=O)Nc1cc(CNC3(C)CCS(=O)(=O)C3)ccc1N2 (centres unmarked) [Example 98]
2.97 nM	Cc1ccc(O)cc1Nc1ccnc2c1C(=O)Nc1cc(CNC3CCOC3)ccc1N2 (centres unmarked) [Example 99]
1.66 nM	Cc1ccc(O)cc1Nc1ccnc2c1C(=O)Nc1cc(CNC(C)C3CC=CCC3)ccc1N2 (centres unmarked) [Example 100]

IC50	Structure (SMILES)
2.98 nM	Cc1ccn(CCCNCc2ccc3c(c2)NC(=O)c2c(Nc4cc(O)ccc4C)ccnc2N3)n1 [Example 101]
1.57 nM	Cc1ccc(O)cc1Nc1ccnc2c1C(=O)Nc1cc(CN[C@H](C)C3CCCCC3)ccc1N2 [Example 102]
3.46 nM	CCn1ccc(CNCc2ccc3c(c2)NC(=O)c2c(Nc4cc(O)ccc4C)ccnc2N3)n1 [Example 103]
12.2 nM	Cc1ccc(O)cc1Nc1ccnc2c1C(=O)Nc1cc(CNc3ccc4[nH]cnc4c3)ccc1N2 [Example 104]
14.6 nM	Cc1ccc(O)cc1Nc1ccnc2c1C(=O)Nc1cc(CNc3ccn(C)n3)ccc1N2 [Example 105]
18.4 nM	COc1ccc(NCc2ccc3c(c2)NC(=O)c2c(Nc4cc(O)ccc4C)ccnc2N3)cc1F [Example 107]
3.55 nM	Cc1ccc(O)cc1Nc1ccnc2c1C(=O)Nc1cc(CNCCN3CCN(C)CC3)ccc1N2 [Example 109]
3.29 nM	Cc1ccc(O)cc1Nc1ccnc2c1C(=O)Nc1cc(CNCCN3CCC(C)CC3)ccc1N2 [Example 110]
4.03 nM	Cc1ccc(O)cc1Nc1ccnc2c1C(=O)Nc1cc(CNCCN3CCCCCC3)ccc1N2 [Example 111]
2.34 nM	CCN(CC)CC(C)NCc1ccc2c(c1)NC(=O)c1c(Nc3cc(O)ccc3C)ccnc1N2 (centres unmarked) [Example 112]
3.6 nM	Cc1ccc(O)cc1Nc1ccnc2c1C(=O)Nc1cc(CNC3CCS(=O)(=O)C3)ccc1N2 (centres unmarked) [Example 113]
1.83 nM	Cc1ccc(O)cc1Nc1ccnc2c1C(=O)Nc1cc(CNCC(C)Cn3cccn3)ccc1N2 (centres unmarked) [Example 114]
3.93 nM	Cc1ccc(O)cc1Nc1ccnc2c1C(=O)Nc1cc(CNCCC(F)(F)F)ccc1N2 [Example 115]
4.75 nM	COCCOCCCNCc1ccc2c(c1)NC(=O)c1c(Nc3cc(O)ccc3C)ccnc1N2 [Example 116]
3.46 nM	Cc1ccc(O)cc1Nc1ccnc2c1C(=O)Nc1cc(CNC[C@H](C)c3ccccc3)ccc1N2 [Example 117]
4.02 nM	CCOCCC(C)NCc1ccc2c(c1)NC(=O)c1c(Nc3cc(O)ccc3C)ccnc1N2 (centres unmarked) [Example 118]
1.92 nM	Cc1ccc(O)cc1Nc1ccnc2c1C(=O)Nc1cc(CNCc3ccc(F)cc3)ccc1N2 [Example 119]
1.49 nM	Cc1ccc(O)cc1Nc1ccnc2c1C(=O)Nc1cc(CNCc3cccc(F)c3)ccc1N2 [Example 120]
3.24 nM	Cc1ccc(O)cc1Nc1ccnc2c1C(=O)Nc1cc(CNC(C)CN(C)C)ccc1N2 (centres unmarked) [Example 122]

IC50	Structure (SMILES)
7.14 nM	Cc1ccc(O)cc1Nc1ccnc2c1C(=O)Nc1cc(CNCCc3ccncc3)ccc1N2 [Example 123]
3.02 nM	Cc1ccc(O)cc1Nc1ccnc2c1C(=O)Nc1cc(CNC3CCCCC3C)ccc1N2 (centres unmarked) [Example 124]
1.97 nM	CCCNCc1ccc2c(c1)NC(=O)c1c(Nc3cc(O)ccc3C)ccnc1N2 [Example 125]
2.24 nM	Cc1ccc(O)cc1Nc1ccnc2c1C(=O)Nc1cc(CNCCF)ccc1N2 [Example 126]
3.52 nM	Cc1ccc(O)cc1Nc1ccnc2c1C(=O)Nc1cc(CNCC3CC3)ccc1N2 [Example 127]
3.99 nM	COCCCNCc1ccc2c(c1)NC(=O)c1c(Nc3cc(O)ccc3C)ccnc1N2 [Example 129]
2.31 nM	Cc1ccc(O)cc1Nc1ccnc2c1C(=O)Nc1cc(CNCC3CNC(=O)C3)ccc1N2 (centres unmarked) [Example 130]
2.05 nM	Cc1ccc(O)cc1Nc1ccnc2c1C(=O)Nc1cc(CNC(C)(C)CN3CCCC3)ccc1N2 [Example 131]
2.89 nM	Cc1ccc(O)cc1Nc1ccnc2c1C(=O)Nc1cc(CNC(C)c3ccco3)ccc1N2 (centres unmarked) [Example 132]
7.53 nM	Cc1ccc(O)cc1Nc1ccnc2c1C(=O)Nc1cc(CNCCOCC3CCCO3)ccc1N2 (centres unmarked) [Example 133]
5.74 nM	Cc1ccc(O)cc1Nc1ccnc2c1C(=O)Nc1cc(CNCC(C)N3CCOCC3)ccc1N2 (centres unmarked) [Example 135]
2.05 nM	Cc1ccc(O)cc1Nc1ccnc2c1C(=O)Nc1cc(CNC3CCOCC3)ccc1N2 [Example 136]
1.68 nM	Cc1ccc(O)cc1Nc1ccnc2c1C(=O)Nc1cc(CNCC3CCC(=O)N3C)ccc1N2 (centres unmarked) [Example 137]
2.41 nM	Cc1ccc(O)cc1Nc1ccnc2c1C(=O)Nc1cc(CNC3CCN(C)CC3)ccc1N2 [Example 138]
3.58 nM	Cc1ccc(O)cc1Nc1ccnc2c1C(=O)Nc1cc(CNC3CCCNC3=O)ccc1N2 (centres unmarked) [Example 139]
1.64 nM	Cc1ccc(O)cc1Nc1ccnc2c1C(=O)Nc1cc(CNCC3CCN(C(C)C)C3)ccc1N2 (centres unmarked) [Example 140]
3.48 nM	Cc1ccc(O)cc1Nc1ccnc2c1C(=O)Nc1cc(CNCCN3CCCC3=O)ccc1N2 [Example 141]
2.11 nM	Cc1ccc(O)cc1Nc1ccnc2c1C(=O)Nc1cc(CNCC(C)(C)C)ccc1N2 [Example 142]
